{
  "source": "PubChem BioAssay AID1845209",
  "about": "(Molecular Pharmacology Branch, DTP, NCI, 2023)",
  "system": "NCI-H211 tumor spheroids, viability percent test/control",
  "test": "Anticancer human tumor NCI-H211 cell line growth inhibition;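 also: spheroids exposed to agents for seven days before readout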",
  "conditions": "spheroids with HUVEC and MSC; for viability, T/C: stronger effect = lower value",
  "source_text": "Multicellular complex tumor spheroid response to DNA repair inhibitors in combination with DNA-damaging drugs\nThis study explores the anticancer activities of DNA-damaging drugs and inhibitors of DNA damage repair, both as single agents and in combinations. Complex tumor spheroids comprised of malignant cells, endothelial cells and mesenchymal stem cells served as an in vitro model for human solid tumors. This model system incorporates physiologically relevant features and patient-derived or established malignant cell lines with clinically relevant genetic alterations from many tumor types. Twenty-six patient-derived or established malignant cell lines were evaluated representing sarcoma, melanoma, small cell lung cancer (SCLC), non-small cell lung cancer (NSCLC), as well as bladder, ovarian and pancreatic cancers. The concentration ranges selected for each drug and investigational agent were based upon clinically achievable concentrations if the clinical Cmax of the agent was known.\nCompounds. The drugs and compounds olaparib (NSC753686), talazoparib (NSC767125), berzosertib (NSC777718), elimusertib (NSC800525), nedisertib (NSC802822), VX-984 (NSC792969), AZD-1390 (NSC803789), temozolomide (NSC362856), topotecan (NSC609699), trabectedin (NSC813783), staurosporine (NSC755774), and gemcitabine (NSC613327) were obtained from the National Cancer Institute (NCI) Developmental Therapeutics Program Chemical Repository. The FDA-approved anticancer drug set is available from the Developmental Therapeutics Program at https://dtp.cancer.gov/organization/dscb/obtaining/available_plates.htm. […] The stock solutions were prepared in dimethyl sulfoxide (DMSO, Sigma-Aldrich, St. Louis, MO, cat. D2650) at 400-fold the tested concentration and stored at -70 degrees C. Prior to their use, the stock solutions were diluted in fresh medium and the final DMSO concentration in the assay was 0.25% (v/v). All drugs and investigational agents were tested over a range starting from a high concentration at or near the clinical Cmax and decreasing in half-log increments. If the clinical Cmax for an agent had not been determined, the highest concentration tested was 10 microM.\nCell Lines. The patient-derived cancer cell (PDC) lines: 156681-154-R-J1-PDC, 283228-195-R-J1-PDC, 287954-098-R-J1-PDC, 292921-168-R-J2-PDC, 349418-098-R-PDC, 425362-245-T-J1-PDC, 556581-035-R-J1-PDC, and BL0293-F563-PDC were received from the NCI Patient-Derived Models Repository (PDMR, https://pdmr.cancer.gov). The established cell lines HS-SY-2 (RRID:CVCL_8719), MPNST, and SYO-1 (RRID:CVCL_7146) were obtained from the Sloan Kettering Institute. The alveolar soft parts sarcoma cell line ASPS-1 (RRID:CVCL_S738) was established at the NCI and grown from internal seed stocks. The following established cell lines were purchased from the American Type Culture Collection (ATCC, Manassas, VA): G-401 (ATCC, cat. CRL-1441, RRID:CVCL_0270), SW982 (ATCC, cat. HTB-93, RRID:CVCL_1734), VA-ES-BJ (ATCC, cat. CRL-2138, RRID:CVCL_1785), NCI-H719 (ATCC, cat. CRL-5837, RRID:CVCL_1582), NCI-H196 (ATCC, cat. CRL-5823, RRID:CVCL_1509), NCI-H841 (ATCC, cat. CRL-5845, RRID:CVCL_1595), NCI-H1618 (ATCC, cat. CRL-5879, RRID:CVCL_1480), NCI-H1876 (ATCC, cat. CRL-5902, RRID:CVCL_1503), DMS 114 (ATCC, cat. CRL-2066; RRID:CVCL_1174), NCI-H211 (ATCC, cat. CRL-5824; RRID:CVCL_1529), and SW 1271 (ATCC, cat. CRL-2177, RRID:CVCL_1716). The small cell lung cancer cell line COR-L88 was purchased from Sigma-Aldrich (cat. 92031917-1VL, RRID:CVCL_1141). The non-small cell lung cancer cell lines NCI-H226 (RRID:CVCL_1544) and NCI-H322M (RRID:CVCL_1557) were established at the NCI and grown from internal seed stocks. Pooled donor human umbilical vein endothelial cells (HUVEC, Lonza, cat. CC-2519) and human mesenchymal stem cells (hMSC, Lonza, cat. PT-2501) were purchased from Lonza (Walkersville, MD).\nCell Culture. All cells were maintained in an incubator at 37 degrees C and 5% CO2 with 95% humidity. […]",
  "note": "pIC50: −log10 of the molar value. Where “and” joins values, the source holds several entries; their conditions need not be identical. Identical values can stand only once.",
  "data": [
    {"smiles": "Cn1nnc2c(C(N)=O)ncn2c1=O", "values": [
      {"measurement": "viability, T/C", "setting": "compound 1 µM", "result": "98.3% [middle of 10 runs]"},
      {"measurement": "viability, T/C", "setting": "compound 10 µM", "result": "92.8% [middle of 10 runs]"}
    ]},
    {"smiles": "COc1cc2c(cc1O)CCNC21CSC2c3c(OC(C)=O)c(C)c4c(c3C(COC1=O)N1C(O)C3Cc5cc(C)c(OC)c(O)c5C(C21)N3C)OCO4", "note": "(centres undefined)", "values": [
      {"measurement": "viability, T/C", "setting": "compound 94.9 pM", "result": "21.3% [middle of 10 runs]"},
      {"measurement": "viability, T/C", "setting": "compound 0.0003 µM", "result": "0.79% [middle of 8 runs]"},
      {"measurement": "viability, T/C", "setting": "compound 0.000949 µM", "result": "0.7% [middle of 9 runs]"},
      {"measurement": "viability, T/C", "setting": "compound 0.003 µM", "result": "0.13% [middle of 6 runs]"},
      {"measurement": "pIC50", "setting": "compound alone, run of 12/16/2019", "result": "10.18 and 10.23 and 10.20"}
    ]},
    {"smiles": "Cc1cc(C)c(CNC(=O)c2cc(-c3ccc(CN4CCOCC4)cc3)cc3c2cnn3C2CCCC2)c(=O)[nH]1", "note": "+ COc1cc2c(cc1O)CCNC21CSC2c3c(OC(C)=O)c(C)c4c(c3C(COC1=O)N1C(O)C3Cc5cc(C)c(OC)c(O)c5C(C21)N3C)OCO4", "values": [
      {"measurement": "pIC50", "setting": "curve of first compound, second compound 30 pM", "result": 5.56},
      {"measurement": "pIC50", "setting": "curve of first compound, second compound 94.9 pM", "result": "> 7.50"},
      {"measurement": "pIC50", "setting": "curve of first compound, second compound 0.0003 µM", "result": "> 7.50"},
      {"measurement": "pIC50", "setting": "curve of first compound, second compound 0.000949 µM", "result": "> 7.50"},
      {"measurement": "pIC50", "setting": "curve of first compound, second compound 0.003 µM", "result": "> 7.50"},
      {"measurement": "viability, T/C", "setting": "second compound 30 pM, first compound 0.0316 µM", "result": 98.1, "unit": "%"},
      {"measurement": "viability, T/C", "setting": "second compound 30 pM, first compound 0.1 µM", "result": 113, "unit": "%"},
      {"measurement": "viability, T/C", "setting": "second compound 30 pM, first compound 0.316 µM", "result": 99.7, "unit": "%"},
      {"measurement": "viability, T/C", "setting": "second compound 30 pM, first compound 1 µM", "result": 73.2, "unit": "%"},
      {"measurement": "viability, T/C", "setting": "second compound 30 pM, first compound 3.16 µM", "result": 48.8, "unit": "%"},
      {"measurement": "viability, T/C", "setting": "second compound 30 pM, first compound 10 µM", "result": 7.15, "unit": "%"},
      {"measurement": "viability, T/C", "setting": "second compound 94.9 pM, first compound 0.0316 µM", "result": 17.6, "unit": "%"},
      {"measurement": "viability, T/C", "setting": "second compound 94.9 pM, first compound 0.1 µM", "result": 12.4, "unit": "%"},
      {"measurement": "viability, T/C", "setting": "second compound 94.9 pM, first compound 0.316 µM", "result": 13.5, "unit": "%"},
      {"measurement": "viability, T/C", "setting": "second compound 94.9 pM, first compound 1 µM", "result": 4.52, "unit": "%"},
      {"measurement": "viability, T/C", "setting": "second compound 94.9 pM, first compound 3.16 µM", "result": 2.44, "unit": "%"},
      {"measurement": "viability, T/C", "setting": "second compound 94.9 pM, first compound 10 µM", "result": 0.74, "unit": "%"},
      {"measurement": "viability, T/C", "setting": "second compound 0.0003 µM, first compound 0.0316 µM", "result": 0.75, "unit": "%"},
      {"measurement": "viability, T/C", "setting": "second compound 0.0003 µM, first compound 0.1 µM", "result": 0.76, "unit": "%"},
      {"measurement": "viability, T/C", "setting": "second compound 0.0003 µM, first compound 0.316 µM", "result": 0.76, "unit": "%"},
      {"measurement": "viability, T/C", "setting": "second compound 0.0003 µM, first compound 1 µM", "result": 0.76, "unit": "%"},
      {"measurement": "viability, T/C", "setting": "second compound 0.0003 µM, first compound 3.16 µM", "result": 1.22, "unit": "%"},
      {"measurement": "viability, T/C", "setting": "second compound 0.0003 µM, first compound 10 µM", "result": 1.03, "unit": "%"},
      {"measurement": "viability, T/C", "setting": "second compound 0.000949 µM, first compound 0.0316 µM", "result": 0.66, "unit": "%"},
      {"measurement": "viability, T/C", "setting": "second compound 0.000949 µM, first compound 0.1 µM", "result": 0.82, "unit": "%"},
      {"measurement": "viability, T/C", "setting": "second compound 0.000949 µM, first compound 0.316 µM", "result": 0.75, "unit": "%"},
      {"measurement": "viability, T/C", "setting": "second compound 0.000949 µM, first compound 1 µM", "result": 0.96, "unit": "%"},
      {"measurement": "viability, T/C", "setting": "second compound 0.000949 µM, first compound 3.16 µM", "result": 0.65, "unit": "%"},
      {"measurement": "viability, T/C", "setting": "second compound 0.000949 µM, first compound 10 µM", "result": 0.68, "unit": "%"},
      {"measurement": "viability, T/C", "setting": "second compound 0.003 µM, first compound 0.0316 µM", "result": 0.13, "unit": "%"},
      {"measurement": "viability, T/C", "setting": "second compound 0.003 µM, first compound 0.1 µM", "result": 0.11, "unit": "%"},
      {"measurement": "viability, T/C", "setting": "second compound 0.003 µM, first compound 0.316 µM", "result": 0.11, "unit": "%"},
      {"measurement": "viability, T/C", "setting": "second compound 0.003 µM, first compound 1 µM", "result": 0.61, "unit": "%"},
      {"measurement": "viability, T/C", "setting": "second compound 0.003 µM, first compound 3.16 µM", "result": 0.4, "unit": "%"},
      {"measurement": "viability, T/C", "setting": "second compound 0.003 µM, first compound 10 µM", "result": 0.33, "unit": "%"}
    ]},
    {"smiles": "CC(C)n1c(=O)n(C)c2cnc3cc(F)c(-c4ccc(OCCCN5CCCCC5)nc4)cc3c21", "values": [
      {"measurement": "viability, T/C", "setting": "compound 0.0316 µM", "result": "91.8% and 79.6% and 91.9%"},
      {"measurement": "viability, T/C", "setting": "compound 0.1 µM", "result": "62.7% and 60.5% and 86.8%"},
      {"measurement": "viability, T/C", "setting": "compound 0.316 µM", "result": "77.7% and 54.9% and 93.9%"},
      {"measurement": "viability, T/C", "setting": "compound 1 µM", "result": "76.7% and 57.7% and 85.2%"},
      {"measurement": "viability, T/C", "setting": "compound 3.16 µM", "result": "66.6% and 43.2% and 68.5%"},
      {"measurement": "viability, T/C", "setting": "compound 10 µM", "result": "23.9% and 14.7% and 17.5%"},
      {"measurement": "pIC50", "setting": "curve of compound", "result": "5.31 and 5.88 and 5.32"}
    ]}
  ]
}
